Measured values: patent US8461183B2, “PPAR agonist compounds, preparation and uses” (Genfit, priority 2008, dated 2013)

What was measured:
[1] = test system: 3T3-L1 murine pre-adipocytes; test: PPARγ functional effect: adipogenesis in 3T3-L1 pre-adipocytes (triglycerides, adiponectin); format: cell-based, Mus musculus; conditions: 3T3-L1, 9 days of treatment, 30 nM to 30 μM
Method: The functional effect of activation of PPARγ is evaluated in vitro on a line of pre-adipocyte cells 3T3-L1 (Thompson G M et al., 2004) by measuring the concentration of intracellular triglycerides and the concentration of adiponectin secreted in the culture medium after 9 days of treatment with the compounds according to the invention.
At confluence, the cells were then rinsed with PBS (Phosphate Buffered Saline solution) and the culture medium was replaced with DMEM 4.5 g/L glucose (10% FCS, 1% L-glutamine, 100 units/mL penicillin and 100 μg/mL streptomycin, 0.25 mM) containing a cocktail for initiation of adipocyte differentiation (IBMX (3-isobutyl-1-methylxanthine Sigma; 17018), 0.1 μM dexamethasone (Sigma; D1756) and 0.4 μM of insulin (Sigma; I2643). The cells were also treated with the compounds according to the invention (1 μL of solubilized compound/mL of medium, 200 μL per well).
After 2 days of incubation, the cells were washed with PBS and the differentiation medium was replaced with DMEM 4.5 g/L of glucose supplemented with 10% FCS, 1% L-glutamine, 100 units/mL penicillin and 100 μg/mL streptomycin, 0.4 μM insulin, and the compounds according to the invention for the purpose of completing cellular differentiation and obtaining adipocytes. The medium was changed every 2 days until total differentiation. After culture for 9 days, the treatment was stopped by withdrawing the culture medium, which was stored for assaying secreted adiponectin. The cells were then washed twice with PBS and placed in isopropanol for membrane permeabilization. The content of intracellular triglycerides was evaluated immediately.
Quantification of intracellular triglycerides was performed with the “Triglyceride Enzymatic PAP1000” kit (bioMérieux; 61238) according to the supplier's recommendations. Secreted adiponectin was measured in the culture medium using the “Mouse Adiponectin/Acrp30 Elisa Kit” kit (R&D Systems; DY1119) according to the supplier's recommendations.

hPPARγ = target: T1, hPPARγ (Homo sapiens, UniProt P37231); test: Gal4-hPPARγ chimera transactivation (luciferase) in COS-7 cells; format: cell-based; conditions: 24 hours
T1 construct: corresponding to the DEF domains (structural elements of the promoter of the PPARs: D=hinge, EF=ligand fixation domain and AF2 fixation site); expressed in transfected cells; host or cells: COS-7 (monkey kidney fibroblasts)
T1 sequence (P37231 238-503 limits assumed): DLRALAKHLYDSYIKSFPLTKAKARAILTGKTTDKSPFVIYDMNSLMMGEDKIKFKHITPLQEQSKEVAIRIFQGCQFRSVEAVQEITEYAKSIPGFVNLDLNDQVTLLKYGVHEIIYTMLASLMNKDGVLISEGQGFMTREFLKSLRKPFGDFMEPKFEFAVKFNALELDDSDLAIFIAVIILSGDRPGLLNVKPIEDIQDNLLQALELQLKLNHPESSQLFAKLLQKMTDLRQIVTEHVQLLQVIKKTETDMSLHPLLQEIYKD
In short: (§1)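 COS-7 cells transfected with Gal4-DBD fused to human PPARγ or PPARδ DEF (hinge/ligand-binding) domain plus Gal4(RE)_TkpGL3 luciferase reporter (1:10).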

hPPARα = target: T2, hPPARα (Homo sapiens, UniProt Q07869); test: Gal4-hPPARα chimera transactivation (luciferase) in COS-7 cells; format: cell-based; conditions: COS-7 cells, Gal4-hPPARα, 24 hours
T2 construct: corresponding to the DEF domains (structural elements of the promoter of the PPARs: D=hinge, EF=ligand fixation domain and AF2 fixation site); expressed in transfected cells; host or cells: COS-7 (monkey kidney fibroblasts)
T2 sequence (Q07869 239-466 limits assumed): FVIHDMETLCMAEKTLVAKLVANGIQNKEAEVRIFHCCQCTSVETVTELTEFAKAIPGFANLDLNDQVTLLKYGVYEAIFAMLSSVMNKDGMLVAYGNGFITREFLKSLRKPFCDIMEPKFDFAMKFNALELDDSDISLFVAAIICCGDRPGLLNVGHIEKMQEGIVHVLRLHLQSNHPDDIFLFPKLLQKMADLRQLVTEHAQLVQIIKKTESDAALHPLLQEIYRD
In short: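 COS-7 cells transiently co-transfected with Gal4 DBD–human PPARα, γ or δ DEF-domain chimeras plus Gal4(RE)_TkpGL3 luciferase reporter (1/10), seeded serum-free, then compound-treated 24 h at 37 °C in 1% Ultroser. Luciferase read after lysis; EC50 and TOP % relative to maximal activation by fenofibric acid (α), rosiglitazone (γ) or GW501516 (δ).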

hPPARδ = target: T3, hPPARδ (Homo sapiens, UniProt Q03181); test: Gal4-hPPARδ chimera transactivation (luciferase) in COS-7 cells; format: cell-based; conditions: COS-7 cells, Gal4-hPPARδ, 24 hours
T3 construct: corresponding to the DEF domains (structural elements of the promoter of the PPARs: D=hinge, EF=ligand fixation domain and AF2 fixation site); expressed in transfected cells; host or cells: COS-7 (monkey kidney fibroblasts)
T3 sequence (Q03181 211-439 limits assumed): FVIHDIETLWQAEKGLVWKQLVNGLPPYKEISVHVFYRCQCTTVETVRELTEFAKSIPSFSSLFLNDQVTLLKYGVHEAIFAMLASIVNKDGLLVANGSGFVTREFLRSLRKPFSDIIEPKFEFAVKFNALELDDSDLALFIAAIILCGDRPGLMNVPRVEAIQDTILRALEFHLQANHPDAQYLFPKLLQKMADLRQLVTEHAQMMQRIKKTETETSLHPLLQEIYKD
In short: as §1

3 PPAR isoforms = test: PPAR agonist properties of compound 1, different method and equipment (not described)
Method: The measured activities differ depending on the compound tested and the compounds according to the invention are also observed to have varying selectivity with respect to the various isoforms of hPPAR: • Certain compounds according to the invention are selective for a subtype of PPAR. […] Compound 1 of the invention was also tested for its PPAR agonist properties. […] As the measurements obtained for compound 1 were carried out according to a different method and with different equipment, relative to the other 53 compounds in the examples, the corresponding results are not presented in Table 8-1 above.

EC50 (hPPARγ; luciferase, read-out: PPARγ EC50) [nM]	Emax (hPPARγ; relative to maximum activation obtained with rosiglitazone, read-out: PPARγ TOP % (maximum activation)) [%]	EC50 (hPPARα; luciferase, read-out: PPARα EC50) [nM]	Emax (hPPARα; relative to maximum activation obtained with fenofibric acid, read-out: PPARα TOP % (maximum activation)) [%]	EC50 (hPPARδ; luciferase, read-out: PPARδ EC50) [nM]	Emax (hPPARδ; relative to maximum activation obtained with GW501516, read-out: PPARδ TOP % (maximum activation)) [%]	Structure (SMILES)	accumulation of triglycerides in adipocytes [1]	secretion of adiponectin [1]	selectivities for the 3 PPAR isoforms (3 PPAR isoforms)
1520	123	304	78	595	93.9	COc1nc(-c2ccc(C(F)(F)F)cc2)ccc1CNc1ccc(CCC(=O)O)cc1 [Cpd 36, 3-(4-(((2-methoxy-6-(4-(trifluoromethyl)phenyl)pyridin-3-yl)methyl)amino)-phenyl)propanoic acid]	dose-dependent stimulation	dose-dependent stimulation	
						COc1nc(-c2ccccc2)ccc1COc1ccc(OC(C)(C)C(=O)O)cc1 [Cpd 1, 2-(4-((2-methoxy-6-phenylpyridin-3-yl)methoxy)phenoxy)-2-methyl-propanoic acid]			comparable selectivities for the 3 PPAR isoforms
